Measurements taken from PubChem BioAssay (NCI).
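Dose response: 5 concentrations. Exposure: 48 h. Format: 96-well plates. Endpoint: linear interpolation; highest concentration if not reached. The concentration for 50% growth inhibition is given as GI50. TGI: concentration producing complete growth inhibition.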

Tests used:
Assay in all cases: NCI anticancer screen, dose series, 48 h
[1] = test system: 786-0 renal
[2] = test system: A498 renal
[3] = test system: ACHN renal
[4] = test system: BT-549 breast
[5] = test system: CAKI-1 renal
[6] = test system: CCRF-CEM leukemia
[7] = test system: COLO 205 colon
[8] = test system: DU-145 prostate
[9] = test system: EKVX NSCLC
[10] = test system: HCC-2998 colon
[11] = test system: HCT-15 colon
[12] = test system: HL-60(TB) leukemia
[13] = test system: HOP-92 NSCLC
[14] = test system: IGROV1 ovarian
[15] = test system: K-562 leukemia
[16] = test system: KM12 colon
[17] = test system: M14 melanoma
[18] = test system: MALME-3M melanoma
[19] = test system: MDA-MB-231 breast
[20] = test system: MDA-MB-435
[21] = test system: MDA-MB-468 breast
[22] = test system: MOLT-4 leukemia
[23] = test system: NCI-H226 lung
[24] = test system: NCI-H23 lung
[25] = test system: NCI-H522 lung
[26] = test system: OVCAR-3 ovarian
[27] = test system: OVCAR-4 ovarian
[28] = test system: OVCAR-5 ovarian
[29] = test system: PC-3 prostate
[30] = test system: RPMI-8226 leukemia
[31] = test system: SF-539 CNS
[32] = test system: SK-MEL-2 melanoma
[33] = test system: SK-MEL-28 melanoma
[34] = test system: SK-MEL-5 melanoma
[35] = test system: SK-OV-3 ovarian
[36] = test system: SN12C renal
[37] = test system: SNB-19 CNS
[38] = test system: SNB-75 CNS
[39] = test system: SR leukemia
[40] = test system: TK-10 renal
[41] = test system: UACC-257 melanoma
[42] = test system: UACC-62 melanoma
[43] = test system: UO-31 renal

`N[C@@H](CSSC[C@H](N)C(=O)Nc1ccc(OCC2CCCC2)cc1)C(=O)Nc1ccc(OCC2CCCC2)cc1` was tested, and the GI50 [1] was 1640 nM, the TGI [1] was 3100 nM and the GI50 [2] was 7150 nM. For the same compound, the TGI [2] was 20100 nM, the GI50 [3] was 423 nM and the TGI [3] was 1490 nM. For the same compound, the GI50 [4] was 1460 nM, the TGI [4] was 3030 nM and the GI50 [5] was 677 nM. The TGI [5] was 1900 nM, the GI50 [6] was 170 nM and the TGI [6] was 374 nM. It also gave a GI50 [7] of 3230 nM, a TGI [7] of 12000 nM and a GI50 [8] of 339 nM. The TGI [8] was 1150 nM, the GI50 [9] was 427 nM and the TGI [9] was 1540 nM. For the same compound, the GI50 [10] was 278 nM, the TGI [10] was 793 nM and the GI50 [11] was 230 nM. It also gave a TGI [11] of 604 nM, a GI50 [12] of 228 nM and a TGI [12] of 777 nM. The GI50 [13] was 1740 nM, the TGI [13] was 3430 nM and the GI50 [14] was 292 nM. For the same compound, the TGI [14] was 823 nM, the GI50 [15] was 194 nM and the TGI [15] was 434 nM. For the same compound, the GI50 [16] was 182 nM, the TGI [16] was 364 nM and the GI50 [17] was 178 nM. The TGI [17] was 344 nM, the GI50 [18] was 6710 nM and the TGI [18] was 19600 nM. The GI50 [19] was 202 nM, the TGI [19] was 422 nM and the GI50 [20] was 163 nM. For the same compound, the TGI [20] was 340 nM, the GI50 [21] was 539 nM and the TGI [21] was 1390 nM. The GI50 [22] was 223 nM, the TGI [22] was 501 nM and the GI50 [23] was 1720 nM. The TGI [23] was 3400 nM, the GI50 [24] was 408 nM and the TGI [24] was 1510 nM. It also gave a GI50 [25] of 1510 nM, a TGI [25] of 3030 nM and a GI50 [26] of 765 nM. For the same compound, the TGI [26] was 2090 nM, the GI50 [27] was 389 nM and the TGI [27] was 1650 nM. For the same compound, the GI50 [28] was 1140 nM, the TGI [28] was 2380 nM and the GI50 [29] was 222 nM. For the same compound, the TGI [29] was 530 nM, the GI50 [30] was 738 nM and the TGI [30] was 2430 nM. It also gave a GI50 [31] of 461 nM, a TGI [31] of 1520 nM and a GI50 [32] of 1700 nM. For the same compound, the TGI [32] was 3170 nM, the GI50 [33] was 1260 nM and the TGI [33] was 2550 nM. It also gave a GI50 [34] of 871 nM, a TGI [34] of 2130 nM and a GI50 [35] of 570 nM. For the same compound, the TGI [35] was 1730 nM, the GI50 [36] was 460 nM and the TGI [36] was 960 nM. It also gave a GI50 [37] of 545 nM, a TGI [37] of 1190 nM and a GI50 [38] of 192 nM. For the same compound, the TGI [38] was 450 nM, the GI50 [39] was 214 nM and the TGI [39] was 584 nM. It also gave a GI50 [40] of 1760 nM, a TGI [40] of 3230 nM and a GI50 [41] of 1740 nM. It also gave a TGI [41] of 3460 nM, a GI50 [42] of 612 nM and a TGI [42] of 1380 nM. For the same compound, the GI50 [43] was 716 nM and the TGI [43] was 2020 nM.
